The target in experiment [1] is T1, CDK4/cyclin D3 (Homo sapiens, UniProt P11802).
T1 construct: purchased Carna Biosciences, Inc. QS S Assist CDK4/Cyclin D3_FP Kit
The experiment can be described thus: Human CDK4/cyclin D3 inhibitory activity (QS S Assist CDK4/Cyclin D3_FP Kit, IMAP fluorescence polarization). Type of experiment: biochemical. The following applies: 50% inhibitory concentration against CDK4/cyclin D3, given as class symbol. The method in brief: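 Percent inhibition, relative to DMSO with and without enzyme, was curve-fitted to give IC50 from polarization (ex 485, em 535 nm). The 45-min room-temperature reaction used 12.5-25 ng/well enzyme, kit ATP/substrate/metal mix, and HEPES pH 7.4 buffer with Tween20 and DTT, followed by 30-min IMAP binding in the dark.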
Background: Fluorescence polarisation rises when a labelled molecule tumbles more slowly, as on binding a larger partner.

Experiment [2] addresses T2, CDK2/cyclin A2 (Homo sapiens, UniProt P24941).
T2 construct: purchased Carna Biosciences, Inc. QS S Assist CDK2/Cyclin A2_FP Kit
The experiment can be described thus: Human CDK2/cyclin A2 inhibitory activity (QS S Assist CDK2/Cyclin A2_FP Kit, IMAP fluorescence polarization). The class given is biochemical. As to conditions: 50% inhibitory concentration against CDK2/cyclin A2, given as class symbol. In outline:
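Kinase activity read as fluorescence polarization (485/535 nm) after phosphorylated fluorescent substrate binds IMAP reagent (30 min, RT, dark). Enzyme (2.5 ng/well) reacted 60 min at RT with ATP/substrate/metal in HEPES pH 7.4 buffer with Tween 20 and DTT; no-enzyme wells define 0% activity; IC50 by curve fit.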

Bounds are passed on as bounds.

T1 sequence (P11802 whole entry): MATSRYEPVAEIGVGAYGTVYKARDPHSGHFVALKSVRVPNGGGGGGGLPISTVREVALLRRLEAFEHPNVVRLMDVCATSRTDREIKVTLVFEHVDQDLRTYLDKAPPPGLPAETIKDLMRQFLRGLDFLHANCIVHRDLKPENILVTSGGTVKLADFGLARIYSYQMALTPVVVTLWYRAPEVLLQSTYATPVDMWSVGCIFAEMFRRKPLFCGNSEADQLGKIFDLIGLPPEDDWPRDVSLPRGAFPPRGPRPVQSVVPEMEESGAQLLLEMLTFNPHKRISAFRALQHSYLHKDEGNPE
T1 sequence (P30281 whole entry partner): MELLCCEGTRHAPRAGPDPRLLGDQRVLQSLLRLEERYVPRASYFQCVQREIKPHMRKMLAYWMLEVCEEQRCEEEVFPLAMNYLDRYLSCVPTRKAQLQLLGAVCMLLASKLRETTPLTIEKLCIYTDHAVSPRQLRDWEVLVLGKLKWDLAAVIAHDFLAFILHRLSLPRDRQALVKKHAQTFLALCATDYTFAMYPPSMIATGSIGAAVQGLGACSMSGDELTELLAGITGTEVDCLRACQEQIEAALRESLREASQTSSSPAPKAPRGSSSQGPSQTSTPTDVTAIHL

`CCNc1nc([C@@H](C)O)cc2cnc(Nc3ccc(CN4CCN(CCO)C[C@@H]4C)cn3)nc12` [Compound 983]: the IC50 (commonly the midpoint of a concentration-inhibition curve) in experiment [1] is less than 10 nM; in experiment [2], not below 100 nM.

As to `CCNc1nc([C@@H](C)O)c(Cl)c2cnc(Nc3ccc(CN4CCN(CCO)CC4)cn3)nc12` [Compound 984], the IC50 is less than 10 nM in experiment [1] and not below 100 nM in experiment [2].

For the molecule `CC(C)Nc1nc([C@@H](C)O)cc2cnc(Nc3ccc(N4CCNC[C@H]4C)cn3)nc12` [Compound 985], the IC50 in experiment [1] was less than 10 nM; in experiment [2], not below 100 nM.

For the molecule `CC(C)Nc1nc([C@@H](C)O)cc2cnc(Nc3ccc(N4CCNC[C@@H]4C)cn3)nc12` [Compound 986], the figures for the IC50 in experiment [1] and in experiment [2] were less than 10 nM and not below 100 nM, respectively.

Regarding `CC(C)Nc1nc([C@@H](C)O)cc2cnc(Nc3ccc(CN4CCN(C(=O)CO)CC4)cn3)nc12` [Compound 987], the IC50 was less than 10 nM in experiment [1] and not below 100 nM in experiment [2].

As to `CO[C@H](C)c1cc2cnc(Nc3ccc(CN4CCN(C(=O)CO)CC4)cn3)nc2c(NC(C)C)n1` [Compound 988], the IC50 in experiment [1] was less than 10 nM; in experiment [2], not below 100 nM.

In the case of `CC(C)Nc1nc([C@@H](C)O)cc2cnc(Nc3ccc(N4CCN(CC(=O)N(C)C)CC4)nn3)nc12` [Compound 991], the IC50 in experiment [1] is less than 10 nM; in experiment [2], not below 100 nM.

On to `CC(C)Nc1nc(C2CCCO2)cc2cnc(Nc3ccc(N4CCNCC4)cn3)nc12` (stereo not drawn) [Compound 992], for which the IC50 was 10 to 100 nM in experiment [1] and not below 100 nM in experiment [2].

Regarding `CC(C)Nc1nc(C2CCCO2)cc2cnc(Nc3ccc(N4CCNCC4)cn3)nc12` (stereo not drawn) [Compound 993], the IC50 was less than 10 nM in experiment [1] and not below 100 nM in experiment [2].

As to `C[C@@H](O)c1cc2cnc(Nc3ccc(N4CCNCC4)cn3)nc2c(N[C@H]2CCOC2)n1` [Compound 994], the IC50 is less than 10 nM in experiment [1] and not below 100 nM in experiment [2].

For `C[C@@H](O)c1cc2cnc(Nc3ccc(N4CCNCC4)cn3)nc2c(N[C@@H]2CCOC2)n1` [Compound 995], the results for the IC50 in experiment [1] and in experiment [2] were less than 10 nM and not below 100 nM, respectively.

In the case of `CCNc1nc([C@@H](C)O)cc2cnc(Nc3ccc4c(n3)CCNC4)nc12` [Compound 996], the IC50 is less than 10 nM in experiment [1] and not below 100 nM in experiment [2].

`C[C@@H](O)c1cc2cnc(Nc3ccc(CN4CCN(CCO)CC4)cn3)nc2c(NC2CC2)n1` [Compound 997]: the IC50 in experiment [1] is less than 10 nM; in experiment [2], not below 100 nM.

With `C[C@@H](O)c1cc2cnc(Nc3ccc(CN4CCN(CCO)CC4)cn3)nc2c(NC2CCC2)n1` [Compound 998], the IC50 is less than 10 nM in experiment [1] and not below 100 nM in experiment [2].

As for `C[C@@H](O)c1cc2cnc(Nc3ccc(CN4CCN(CCO)CC4)cn3)nc2c(NCC2CC2)n1` [Compound 999], the IC50 in experiment [1] is less than 10 nM; in experiment [2], not below 100 nM.

With `CCCNc1nc([C@@H](C)O)cc2cnc(Nc3ccc(N4CCC(O)CC4)nn3)nc12` [Compound 1000], the IC50 in experiment [1] was 10 to 100 nM; in experiment [2], not below 100 nM.

With `CCNc1nc([C@@H](C)O)cc2cnc(Nc3ccc(N4CCNCC4)cn3)nc12` [Compound 1001], the values for the IC50 in experiment [1] and in experiment [2] were less than 10 nM and not below 100 nM, respectively.

For the molecule `CCCNc1nc(C2(C)COC2)cc2cnc(Nc3ccc(N4CCNCC4)cn3)nc12` [Compound 1002], the IC50 is less than 10 nM in experiment [1] and not below 100 nM in experiment [2].

For the molecule `CCCNc1nc(C2(C)COC2)cc2cnc(Nc3ccc(CN4CCNCC4)cn3)nc12` [Compound 1003], the results for the IC50 in experiment [1] and in experiment [2] were less than 10 nM and not below 100 nM, respectively.

In the case of `CCCNc1nc(C2CCOC2)cc2cnc(Nc3ccc(N4CCNCC4)cn3)nc12` (stereo not drawn) [Compound 1004], the IC50 in experiment [1] is less than 10 nM; in experiment [2], not below 100 nM.

Consider `CCCNc1nc(C2CCOC2)cc2cnc(Nc3ccc(CN4CCNCC4)cn3)nc12` (stereo not drawn) [Compound 1005], for which the values for the IC50 in experiment [1] and in experiment [2] were less than 10 nM and not below 100 nM, respectively.

As for `CC(C)Nc1nc(C2(C)COC2)cc2cnc(Nc3ccc(N4CCNCC4)cn3)nc12` [Compound 1006], the IC50 in experiment [1] is less than 10 nM; in experiment [2], not below 100 nM.

For `CC(C)Nc1nc(C2CCOC2)cc2cnc(Nc3ccc(N4CCNCC4)cn3)nc12` (stereo not drawn) [Compound 1007], the IC50 is less than 10 nM in experiment [1] and not below 100 nM in experiment [2].

Take `CCCNc1nc([C@@H](C)OC)cc2cnc(Nc3ccc(N4CC5(CC(NC)C5)C4)cn3)nc12` [Compound 1008]: the concentration for half-maximal inhibition (IC50) in experiment [1] is less than 10 nM; in experiment [2], not below 100 nM.

For the molecule `CNC1CC2(C1)CN(c1ccc(Nc3ncc4cc([C@@H](C)OC)nc(N[C@H]5CCCOC5)c4n3)nc1)C2` [Compound 1009], the IC50 is less than 10 nM in experiment [1] and not below 100 nM in experiment [2].

`CC(C)Nc1nc(C2CCOC2)cc2cnc(Nc3ccc(CN4CCN(CCO)CC4)cn3)nc12` (stereo not drawn) [Compound 1010]: the figures for the IC50 in experiment [1] and in experiment [2] were less than 10 nM and not below 100 nM, respectively.

Regarding `OCCN1CCN(Cc2ccc(Nc3ncc4cc(C5CCOC5)nc(N[C@H]5CCCOC5)c4n3)nc2)CC1` (stereo partly drawn) [Compound 1011], the IC50 in experiment [1] is less than 10 nM; in experiment [2] it was not below 100 nM.

As to `CC(C)Nc1nc(C2CCOC2)cc2cnc(Nc3ccc(CN4CCN(CC#N)CC4)cn3)nc12` (stereo not drawn) [Compound 1012], the IC50 in experiment [1] is less than 10 nM; in experiment [2], not below 100 nM.

`N#CCN1CCN(Cc2ccc(Nc3ncc4cc(C5CCOC5)nc(N[C@H]5CCCOC5)c4n3)nc2)CC1` (stereo partly drawn) [Compound 1013]: the results for the IC50 in experiment [1] and in experiment [2] were less than 10 nM and not below 100 nM, respectively.

On to `CC(C)Nc1nc(C2CCOC2)cc2cnc(Nc3ccc(CN4CCN(CC#N)CC4)cn3)nc12` (stereo not drawn) [Compound 1014], for which the IC50 in experiment [1] is less than 10 nM; in experiment [2], not below 100 nM.

In the case of `CC(C)Nc1nc([C@@H](C)O)cc2cnc(Nc3ccc(CN4CCN(CC#N)CC4)cn3)nc12` [Compound 1015], the values for the IC50 in experiment [1] and in experiment [2] were less than 10 nM and not below 100 nM, respectively.

As to `CC(C)Nc1nc([C@@H](C)O)cc2cnc(Nc3ccc(CN4CCC(CO)CC4)cn3)nc12` [Compound 1016], the IC50 in experiment [1] is less than 10 nM; in experiment [2], not below 100 nM.

For `CNC(=O)CN1CCN(Cc2ccc(Nc3ncc4cc([C@@H](C)O)nc(NC(C)C)c4n3)nc2)CC1` [Compound 1017], the IC50 in experiment [1] was less than 10 nM; in experiment [2] it was not below 100 nM.

`CC(C)Nc1nc([C@@H](C)O)cc2cnc(Nc3ccc(CN4CCN(CC(=O)N(C)C)CC4)cn3)nc12` [Compound 1018]: the IC50 in experiment [1] was less than 10 nM; in experiment [2], not below 100 nM.

On to `CC(C)Nc1nc([C@@H](C)O)cc2cnc(Nc3ccc(CN4CCC(O)CC4)cn3)nc12` [Compound 1019], for which the IC50 is less than 10 nM in experiment [1] and not below 100 nM in experiment [2].

Regarding `C[C@@H](O)c1cc2cnc(Nc3ccc(CN4CCC(O)CC4)cn3)nc2c(NC(C)(C)C)n1` [Compound 1020], the IC50 in experiment [1] was less than 10 nM; in experiment [2], not below 100 nM.

On to `C[C@@H](O)c1cc2cnc(Nc3ccc(CN4CCC(CO)CC4)cn3)nc2c(NC(C)(C)C)n1` [Compound 1021], for which the IC50 in experiment [1] is less than 10 nM; in experiment [2], not below 100 nM.

Take `CCCNc1nc([C@@H](C)O)cc2cnc(Nc3ccc(CN4CCC(O)CC4)cn3)nc12` [Compound 1022]: the figures for the IC50 in experiment [1] and in experiment [2] were less than 10 nM and not below 100 nM, respectively.

As to `CC(C)CNc1nc([C@@H](C)O)cc2cnc(Nc3ccc(CN4CCC(O)CC4)cn3)nc12` [Compound 1023], the IC50 was less than 10 nM in experiment [1] and not below 100 nM in experiment [2].

Consider `CC(C)CNc1nc([C@@H](C)O)cc2cnc(Nc3ccc(CN4CCC(CO)CC4)cn3)nc12` [Compound 1024], for which the values for the IC50 in experiment [1] and in experiment [2] were less than 10 nM and not below 100 nM, respectively.

With `CC(=O)c1cc2cnc(Nc3ccc4c(n3)CCNC4)nc2c(NC(C)C)n1` [Compound 1027], the IC50 was less than 10 nM in experiment [1] and not below 100 nM in experiment [2].

Turning to `CCCNc1nc(C(C)=O)cc2cnc(Nc3ccc(N4CCNCC4)cn3)nc12` [Compound 1028], the IC50 in experiment [1] was 10 to 100 nM; in experiment [2], not below 100 nM.

Regarding `CC(=O)c1cc2cnc(Nc3ccc(N4CCNCCC4=O)cn3)nc2c(NC(C)C)n1` [Compound 1029], the results for the IC50 in experiment [1] and in experiment [2] were less than 10 nM and not below 100 nM, respectively.

Regarding `CCC(=O)c1cc2cnc(Nc3ccc(N4CCNCC4=O)cn3)nc2c(NC(C)C)n1` [Compound 1030], the results for the IC50 in experiment [1] and in experiment [2] were 10 to 100 nM and not below 100 nM, respectively.

As to `CC(=O)c1nc(NC(C)C)c2nc(Nc3ccc(N4CCNCC4=O)cn3)ncc2c1Cl` [Compound 1031], the IC50 in experiment [1] was less than 10 nM; in experiment [2] it was not below 100 nM.

For the molecule `CC(C)Nc1nc([C@@H](C)O)cc2cnc(Nc3ccc(N4CC(C)NCC4=O)cn3)nc12` (stereo partly drawn) [Compound 1032], the IC50 in experiment [1] was less than 10 nM; in experiment [2], not below 100 nM.

For the molecule `CC(C)Nc1nc([C@@H](C)O)cc2cnc(Nc3ccc(N4C(=O)CNCC4C)cn3)nc12` (stereo partly drawn) [Compound 1033], the figures for the IC50 in experiment [1] and in experiment [2] were less than 10 nM and not below 100 nM, respectively.

Consider `CCC(O)c1cc2cnc(Nc3ccc(N4CCNCC4)cn3)nc2c(NC(C)C)n1` (stereo not drawn) [Compound 1034], for which the IC50 in experiment [1] was less than 10 nM; in experiment [2], not below 100 nM.

Regarding `CCC(O)c1cc2cnc(Nc3ccc(N4CCNCC4)cn3)nc2c(NC(C)C)n1` (stereo not drawn) [Compound 1035], the IC50 was less than 10 nM in experiment [1] and not below 100 nM in experiment [2].

On to `CCC(O)c1cc2cnc(Nc3ccc(N4CCNCC4=O)cn3)nc2c(NC(C)C)n1` (stereo not drawn) [Compound 1037], for which the IC50 is 10 to 100 nM in experiment [1] and not below 100 nM in experiment [2].

On to `CC(C)Nc1nc([C@@H](C)O)cc2cnc(Nc3ccc(CN4CCCCC4)cn3)nc12` [Compound 1038], for which the IC50 in experiment [1] was less than 10 nM; in experiment [2], not below 100 nM.

The record behind these values is patent US10124004B2, “Pyrido[3,4-d]pyrimidine derivative and pharmaceutically acceptable salt thereof” (Teijin Pharma Limited, priority 2015, dated 2018).
